From the NIST ThermoML archive (doi:10.1021/acs.jced.5b00662)

Assay: xn = mol fraction of the nth substance listed
Details: 100 kPa, Liquid; for speed of sound: Sing-around technique in a fixed-path interferometer; for mass density: Vibrating tube method

CCOCCO [2-ethoxyethan-1-ol] + O
Details | mass density, x1 = 0.9426 [kg/m3] | mass density, x1 = 0.949 [kg/m3] | mass density, x1 = 0.9549 [kg/m3] | mass density, x1 = 0.9567 [kg/m3] | mass density, x1 = 0.967 [kg/m3] | speed of sound, x1 = 0.9426 [m/s] | speed of sound, x1 = 0.949 [m/s] | speed of sound, x1 = 0.9549 [m/s] | speed of sound, x1 = 0.9567 [m/s] | speed of sound, x1 = 0.967 [m/s]
283.15 K | 943.675 | 943.444 | 943.15 | 943.112 | 942.599 | 1364 | 1365.8 | 1366.2 | 1366.8 | 1361.6
288.15 K | 939.208 | 938.975 | 938.68 | 938.638 | 938.12 | 1346.2 | 1347.5 | 1347.9 | 1348.4 | 1343.5
293.15 K | 934.713 | 934.479 | 934.183 | 934.14 | 933.622 | 1328.3 | 1329.2 | 1329.6 | 1330.2 | 1325.6
298.15 K | 930.19 | 929.953 | 929.657 | 929.614 | 929.099 | 1310.5 | 1311.1 | 1311.3 | 1311.8 | 1307.8
303.15 K | 925.638 | 925.399 | 925.102 | 925.055 | 924.54 | 1292.8 | 1293 | 1293.2 | 1292.6 | 1289.8
308.15 K | 921.054 | 920.815 | 920.517 | 920.467 | 919.951 | 1275 | 1275.3 | 1275.2 | 1274.3 | 1272
313.15 K | 916.435 | 916.194 | 915.892 | 915.843 | 915.328 | 1257.4 | 1257.6 | 1256.6 | 1256.1 | 1254.3
323.15 K | 907.087 | 906.839 | 906.54 | 906.493 | 905.969 | 1222.2 | 1222.2 | 1220.3 | 1220.2 | 1218.9
333.15 K | 897.58 | 897.329 | 897.036 | 896.985 | 896.461 | 1187.1 | 1186.9 | 1185.1 | 1184.9 | 1183.7
343.15 K | 887.911 | 887.628 | 887.337 | 887.297 | 886.774 | 1152 | 1151.1 | 1150.1 | 1149.8 | 1148.6
